Legend:
Salmonella TA98 = assay: Salmonella plate-incorporation mutagenicity assay, strain TA98, with S9 mix; type: cell-based
strain TA100 = type: cell-based, Salmonella; details: TA100 liquid-suspension, 5 µg/ml
Salmonella TA104 = assay: Salmonella plate-incorporation mutagenicity assay, strain TA104, with S9 mix; type: cell-based
[1] = test system: DNA from Salmonella TA100; assay: Abasic sites by aldehydic-site assay in DNA of treated TA100; type: cell-based; details: TA100, 5 µg/ml; DMSO 5.9 ± 0.33
Salmonella TA100 = assay: Salmonella plate-incorporation mutagenicity assay, strain TA100; type: cell-based
[2] = test system: DNA from Salmonella TA100; assay: Stable DNA adducts by 32P-postlabeling in DNA of treated TA100; type: cell-based; details: TA100, 5 µg/ml; DMSO 0.024 ± 0.000

Q: `O[C@@H]1C=Cc2c(ccc3ccc4ccsc4c23)[C@H]1O` (racemic) [P[4,3-b]T 8,9-diol, (±)-trans-8,9-Dihydrophenanthro[4,3-b]thiophene 8,9 diol-] was tested. Which Rev/plate (Salmonella TA98; TA98 +S9, Test 1, 2 µg/plate, zero-dose 33/40/39) did it give?
A: 73 rev/plate

Q: And the Rev/plate (Salmonella TA98; TA98 +S9, Test 1, 5 µg/plate, zero-dose 33/40/39)?
A: 116 rev/plate

Q: And the Rev/plate (Salmonella TA98; TA98 +S9, Test 1, 10 µg/plate, zero-dose 33/40/39)?
A: 140 rev/plate

Q: And the Rev/plate (Salmonella TA98; TA98 +S9, Test 1, 20 µg/plate, zero-dose 33/40/39)?
A: 229 rev/plate

Q: And the Rev/plate (Salmonella TA98; TA98 +S9, Test 1, 40 µg/plate, zero-dose 33/40/39)?
A: 435 rev/plate

Q: What about the Rev/plate (Salmonella TA98; TA98 +S9, Test 1, 80 µg/plate, zero-dose 33/40/39) of the same molecule?
A: 578 rev/plate

Q: And the Rev/plate (Salmonella TA98; TA98 +S9, Test 2, 10 µg/plate, zero-dose 43/41/30)?
A: 167/151

Q: And the Rev/plate (Salmonella TA98; TA98 +S9, Test 2, 20 µg/plate, zero-dose 43/41/30)?
A: 127/225

Q: What about the Rev/plate (Salmonella TA98; TA98 +S9, Test 2, 40 µg/plate, zero-dose 43/41/30) of the same molecule?
A: 383/448

Q: What about the Rev/plate (Salmonella TA98; TA98 +S9, Test 2, 80 µg/plate, zero-dose 43/41/30) of the same molecule?
A: 479/475

Q: What about the Rev/plate (Salmonella TA98; TA98 +S9, Test 3, 10 µg/plate, zero-dose 49/50/50) of the same molecule?
A: 251/249

Q: And the Rev/plate (Salmonella TA98; TA98 +S9, Test 3, 20 µg/plate, zero-dose 49/50/50)?
A: 298/321

Q: What about the Rev/plate (Salmonella TA98; TA98 +S9, Test 3, 40 µg/plate, zero-dose 49/50/50) of the same molecule?
A: 561/624

Q: What about the Rev/plate (Salmonella TA98; TA98 +S9, Test 3, 80 µg/plate, zero-dose 49/50/50) of the same molecule?
A: 828/725

Q: And the “Mutagenic potency, Revertants/µg ± S.E., TA98” value (Salmonella TA98; plate-incorporation, +S9)?
A: 11.0 ± 1.6 rev/µg

Q: What about the “Mutagenicity call TA98” value (Salmonella TA98; plate-incorporation, +S9) of the same molecule?
A: (+) (Called mutagenic (+) based on showing reproducible, dose-related increases in rev/plate that reached or exceeded 2-fold relative to zero-dose controls)

Q: And the “Fold increase in mutant frequency relative to DMSO-treated cells” value (strain TA100)?
A: 6.1 fold

Q: And the “Rev/10^6 survivors” value (strain TA100; DMSO 0.8)?
A: 4.9 Rev/10^6 survivors

Q: And the Percent survival (strain TA100; DMSO 100)?
A: 47%

Q: And the Rev/plate (Salmonella TA104; TA104 +S9, Test 1, 0.5 µg/plate, zero-dose 379/400/370)?
A: 700/693

Q: And the Rev/plate (Salmonella TA104; TA104 +S9, Test 1, 1 µg/plate, zero-dose 379/400/370)?
A: 1035/1060

Q: And the Rev/plate (Salmonella TA104; TA104 +S9, Test 1, 2.5 µg/plate, zero-dose 379/400/370)?
A: 1698/1615

Q: And the Rev/plate (Salmonella TA104; TA104 +S9, Test 1, 5 µg/plate, zero-dose 379/400/370)?
A: 1986/1995

Q: And the Rev/plate (Salmonella TA104; TA104 +S9, Test 3, 0.5 µg/plate, zero-dose 402/395/336)?
A: 824/707

Q: And the Rev/plate (Salmonella TA104; TA104 +S9, Test 3, 1 µg/plate, zero-dose 402/395/336)?
A: 1210/1178

Q: What about the Rev/plate (Salmonella TA104; TA104 +S9, Test 3, 2.5 µg/plate, zero-dose 402/395/336) of the same molecule?
A: 1827/1822

Q: What about the Rev/plate (Salmonella TA104; TA104 +S9, Test 3, 5 µg/plate, zero-dose 402/395/336) of the same molecule?
A: 1980/1970

Q: And the “Mutagenic potency, Revertants/µg ± S.E., TA104” value (Salmonella TA104; plate-incorporation, +S9)?
A: 577 ± 63 rev/µg

Q: And the “Mutagenicity call TA104” value (Salmonella TA104; plate-incorporation, +S9)?
A: (+) (Called mutagenic (+) based on showing reproducible, dose-related increases in rev/plate that reached or exceeded 2-fold relative to zero-dose controls)

Q: And the “Abasic sites/10^5 nucleotides ± S.E” value [1]?
A: 5.5 ± 0.16 sites/10^5 nucleotides

Q: And the Rev/plate (Salmonella TA100; TA100 +S9, Test 1, 2 µg/plate, zero-dose 99/110/110)?
A: 660 rev/plate

Q: What about the Rev/plate (Salmonella TA100; TA100 +S9, Test 1, 5 µg/plate, zero-dose 99/110/110) of the same molecule?
A: 938 rev/plate

Q: And the Rev/plate (Salmonella TA100; TA100 +S9, Test 1, 10 µg/plate, zero-dose 99/110/110)?
A: 1120 rev/plate

Q: And the Rev/plate (Salmonella TA100; TA100 +S9, Test 1, 20 µg/plate, zero-dose 99/110/110)?
A: 1175 rev/plate

Q: And the Rev/plate (Salmonella TA100; TA100 +S9, Test 1, 40 µg/plate, zero-dose 99/110/110)?
A: 1027 rev/plate

Q: What about the Rev/plate (Salmonella TA100; TA100 +S9, Test 1, 80 µg/plate, zero-dose 99/110/110) of the same molecule?
A: 673 rev/plate

Q: And the Rev/plate (Salmonella TA100; TA100 +S9, Test 2, 0.5 µg/plate, zero-dose 84/78/80)?
A: 205/219

Q: What about the Rev/plate (Salmonella TA100; TA100 +S9, Test 2, 1 µg/plate, zero-dose 84/78/80) of the same molecule?
A: 318/270

Q: And the Rev/plate (Salmonella TA100; TA100 +S9, Test 2, 2.5 µg/plate, zero-dose 84/78/80)?
A: 703/655

Q: And the Rev/plate (Salmonella TA100; TA100 +S9, Test 2, 5 µg/plate, zero-dose 84/78/80)?
A: 857/907

Q: And the Rev/plate (Salmonella TA100; TA100 +S9, Test 3, 0.5 µg/plate, zero-dose 127/118/125)?
A: 412/353

Q: What about the Rev/plate (Salmonella TA100; TA100 +S9, Test 3, 1 µg/plate, zero-dose 127/118/125) of the same molecule?
A: 610/511

Q: What about the Rev/plate (Salmonella TA100; TA100 +S9, Test 3, 2.5 µg/plate, zero-dose 127/118/125) of the same molecule?
A: 951/868

Q: And the Rev/plate (Salmonella TA100; TA100 +S9, Test 3, 5 µg/plate, zero-dose 127/118/125)?
A: 985/1059

Q: And the Rev/plate (Salmonella TA100; TA100 +S9, Test 4, 0.5 µg/plate, zero-dose 112/140/115)?
A: 305/312

Q: What about the Rev/plate (Salmonella TA100; TA100 +S9, Test 4, 1 µg/plate, zero-dose 112/140/115) of the same molecule?
A: 487/469

Q: And the Rev/plate (Salmonella TA100; TA100 +S9, Test 4, 2.5 µg/plate, zero-dose 112/140/115)?
A: 976/966

Q: And the Rev/plate (Salmonella TA100; TA100 +S9, Test 4, 5 µg/plate, zero-dose 112/140/115)?
A: 1368/1275

Q: And the Rev/plate (Salmonella TA100; TA100 +S9, Test 5, 0.5 µg/plate, zero-dose 102/119/99)?
A: 269/235

Q: And the Rev/plate (Salmonella TA100; TA100 +S9, Test 5, 1 µg/plate, zero-dose 102/119/99)?
A: 430/375

Q: What about the Rev/plate (Salmonella TA100; TA100 +S9, Test 5, 2.5 µg/plate, zero-dose 102/119/99) of the same molecule?
A: 865/878

Q: What about the Rev/plate (Salmonella TA100; TA100 +S9, Test 5, 5 µg/plate, zero-dose 102/119/99) of the same molecule?
A: 1150/1115

Q: What about the “Times more mutagenic for base-substitution mutation than the parent P[4,3-b]T” value (Salmonella TA100; base-substitution strains (TA100, TA104), Table 2) of the same molecule?
A: 10–20 times

Q: And the “Mutagenic potency, Revertants/µg ± S.E., TA100” value (Salmonella TA100; plate-incorporation, +S9)?
A: 274 ± 37 rev/µg

Q: And the “Mutagenicity call TA100” value (Salmonella TA100; plate-incorporation, +S9)?
A: (+) (Called mutagenic (+) based on showing reproducible, dose-related increases in rev/plate that reached or exceeded 2-fold relative to zero-dose controls)

Q: What about the “Stable adducts/10^8 nucleotides ± S.E” value [2] of the same molecule?
A: 0.650 ± 0.045 adducts/10^8 nucleotides

Reference: article PMC2819846 (Mutation research, 2008)
